Measurements taken from paper PMC4838876, “Multivalent display of minimal Clostridium difficile glycan epitopes mimics antigenic properties of larger glycans” (Nature Communications, 2016).

Experiments:
mAb 2C5 = experiment: Interaction Map (IM) analysis based on SPR traces; format: binding, mouse
Excerpt: Pentasaccharide 1 was bound with about 100-fold lower KD values than the minimal glycan epitope 3. This stronger binding may have been due to avidity (re-binding) effects, as 3 is contained twice in 1, or by higher affinity. To address this question, we compared the binding properties by IM analysis based on SPR traces. […] Both antigens interacted with mAb 2C5 in a 1:1-like manner, indicated by one dominant peak in the IM plots. Therefore, stronger antibody binding to 1 was due to increased affinity, not avidity, which would be characterized by differences in off-rates and additional peaks.
Figure 7 IM and thermodynamic analysis of glycan–mAb interactions and conformation of 1. (a) IM analysis. The heat maps represent on- and off-rates of mAb 2C5 to 1 (upper) and 3 (lower). (b) Thermograms acquired using 7 μM of mAb 2C5 and titrating 250 μM of 1 (left) or 3 mM of 3 (right) at 25 °C. Thermodynamic parameters were inferred by nonlinear least-square fits of the data points. (c) Summary of thermodynamic parameters for 1 and 3 interacting with mAbs 2C5 and 10A1. Bars represent mean±s.e.m. of two independent measurements. See Supplementary Fig. 6 for details. (d) One-dimensional proton NMR spectrum, and 2D zTOCSY and NOE spectroscopy (NOESY) NMR spectra of 1 showing the coupled protons to the anomeric protons of the five residues with numbering according to the structure shown in e. […]

mAb 10A1 = experiment: STD-NMR epitope mapping; format: binding, mouse; conditions: 200 μM ligand, 2 μM antibody
Excerpt: To understand antibody binding at molecular-level detail and to identify the functional groups involved in antibody binding, we performed STD-NMR measurements. […] The glucose moiety in 3 contributed weakly to antibody binding around H3 (11%). Despite the low saturation transfer, this interaction appears to be important for antibody binding, as mono-rhamnose 4 was not or only weakly bound by the mAbs in glycan microarray and SPR experiments.
Figure 6 Epitope mapping of glycan–mAb interactions by STD-NMR. (a,b) Recognition of disaccharide 3 by mAb 10A1 shown as Lewis structure and three-dimensional model calculated with Glycam[70]. Colours indicate percentages of STD effects. (c) Recognition patterns of 3 by three mAbs. STD spectra were acquired at 2 s saturation transfer time in the presence of mAbs 2C5, 10A1 and 10D6 (from top to bottom). (d) Competition of trisaccharide 2 by pentasaccharide 1.
Before the STD-NMR studies, proton resonances of oligosaccharides 1–3 were assigned using standard one-dimensional proton spectra, as well as 2D total correlation spectroscopy (2D-TOCSY), correlation spectroscopy, ^1H–^13C heteronuclear single quantum coherence and ^1H–^13C heteronuclear multiple bond correlation spectra at concentrations varying between 5 and 20 mM in D2O. All NMR studies were measured at 298 K on a Varian PremiumCOMPACT 600 MHz spectrometer equipped with a OneNMR probe. For STD-NMR, samples contained 200 μM ligand and 2 μM antibody in 40 mM phosphate buffer (pH 7.0, uncorrected). On-resonance irradiation was set to −0.5 p.p.m. and off-resonance irradiation was set to 80 p.p.m. A 35-ms T1ρ spin-lock filter and a W5 WATERGATE for solvent suppression were applied. The saturation pulse train consisted of a series of Gaussian shaped pulses of 50 ms duration and 1 ms interpulse delay with an irradiation power of 85 Hz. A total of 2,048 scans were recorded. STD-NMR spectra of carbohydrates in the absence of antibody and spectra of antibody only served as negative controls. Here, saturation and relaxation times were set to 2 and 6 s, respectively. STD build-up curves for mAb 10A1 were recorded at saturation transfer times of 0.5, 1, 2, 4 and 6 s, adjusting the prescan delay accordingly. Epitopes for mAbs 2C5 and 10D6 were recorded with a saturation transfer time of 2 s. NMR spectra were processed in MestReNova 9.1 (MestreLab) and data were analysed in OriginPro9 (OriginLab) to obtain the binding epitopes according to Mayer and James[28]. For the competition experiments, 1 was added to samples of 3 or 2 to a final concentration of 200 μM applying a saturation transfer time of 2 s.

C[C@@H]1O[C@@H](O[C@@H]2[C@@H](O)[C@H](O[C@H]3[C@H](O[C@@H]4O[C@@H](C)[C@H](O)[C@@H](O)[C@H]4O)[C@@H](O)[C@@H](O[C@H]4[C@@H](OCCCCCN)O[C@H](CO)[C@@H](O)[C@@H]4O)O[C@@H]3CO)O[C@H](CO)[C@H]2O)[C@H](O)[C@H](O)[C@H]1O [Compound 1]
on-rate (mAb 2C5): 126,000 M^−1 s^−1

C[C@@H]1O[C@@H](O[C@@H]2[C@@H](O)[C@H](OCCCCCN)O[C@H](CO)[C@H]2O)[C@H](O)[C@H](O)[C@H]1O [Compound 3, Rha-(1→3)-Glc]
normalized STD effect, glucose H3 (mAb 10A1): 11%
normalized STD effect, rhamnose H2 (mAb 10A1): 78%
normalized STD effect, rhamnose H3 (mAb 10A1): 99%
normalized STD effect, rhamnose methyl protons H6, H'6 and H''6 (mAb 10A1): 100%
on-rate (mAb 2C5): 250 M⁻¹ s⁻¹
